In US20050163849A1 (priority 2003, published 2005):

Assay: Intracolonic ligated model, lower G.I. absorption and bioavailability of iron-transport moiety complexes
Details: rat, intracolonic bolus into ligated colon, 10 mg iron/rat
Protocol: Absorption of the complexes is evaluated from blood samples taken from the animal as a function of time after intubation. A rise in the hematocrit level in the blood is indicative of absorption.
A segment of proximal colon is isolated and the colon is flushed of fecal materials. […] The colonic contents are flushed out and the colon is returned to the abdomen of the animal.
At the end of the 4 hour test period, the rats are euthanized with an overdose of pentobarbital. Colonic segments from each rat are excised and opened longitudinally along the anti-mesenteric border. Each segment is observed macroscopically for irritation and any abnormality noted. The excised colons are placed on graph paper and measured to approximate colonic surface area.

Substance: ferrous laurate [ferrous-laurate complex]
- Increased absorption relative to ferrous sulfate (change in hematocrit level): at least two-fold
